pEC50, pIC50: −log10 of the molar value.

What is called pIC50 is −log10 of the IC50, conventionally taken in molar units. One may read the pEC50 as the negative decadic logarithm of the EC50, by convention in mol/L. High values mean a small EC50, low ones a large EC50.

One test has as its target T1, PI3Kalpha (Homo sapiens, UniProt P42336).
T1 construct: His (N); made in house; host or cells: SF9 insect cells (baculovirus co-infection)
Nature of the test: Inhibition of PI3Kalpha-induced PIP-2 phosphorylation (filter-binding assay, 33P-ATP). It counts as biochemical. The conditions noted are these: PI3 Kinase alpha (p85alpha/His-p110alpha), 1 μM ATP; read-out: IC50 PI3Kα.

Another test relates to H460 cells. Nature of the test: alamarBlue H460 cell assay (antiproliferative/cytotoxicity). Format: cell-based. The conditions noted are these: NCI-H460; H460 human lung carcinoma cells. The method, boiled down: (§1)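 Read-out: alamarBlue reduction by metabolically active cells, fluorescence ex 530-560 nm/em 590 nm, measured 8 h after dye addition at 37° C. Cells had been exposed to compound for 5-6 days over a 10-point 1:3 series starting at 10 μM final. EC50 derived after medium-blank subtraction.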

The next test deals with MB453 cells. Briefly: alamarBlue MB453 cell assay (antiproliferative/cytotoxicity). To be noted: Homo sapiens; MDA MB 453 breast cancer cell line. It counts as cell-based. The procedure, abridged: as §1
In general terms: The colour change of resazurin is a common sign of viable cells or microbes.

The test system of another test is U87 cells. Briefly: alamarBlue U87 cell assay (antiproliferative/cytotoxicity). Format: cell-based. The conditions noted are these: U-87MG human glioblastoma cells. The method, boiled down: as §1
The next test has as its system MCF7 cells. Briefly: alamarBlue MCF7 cell assay (antiproliferative/cytotoxicity). It counts as cell-based. The conditions noted are these: MCF7 human breast cancer cell line. The procedure, abridged:
as §1

Another test has as its system BT474 cells. Briefly: alamarBlue BT474 cell assay (antiproliferative/cytotoxicity). It counts as cell-based. The conditions noted are these: BT-474 human breast cancer cell line, 5-6 days incubation. The procedure, abridged: as §1

T1 sequence (P27986 whole entry): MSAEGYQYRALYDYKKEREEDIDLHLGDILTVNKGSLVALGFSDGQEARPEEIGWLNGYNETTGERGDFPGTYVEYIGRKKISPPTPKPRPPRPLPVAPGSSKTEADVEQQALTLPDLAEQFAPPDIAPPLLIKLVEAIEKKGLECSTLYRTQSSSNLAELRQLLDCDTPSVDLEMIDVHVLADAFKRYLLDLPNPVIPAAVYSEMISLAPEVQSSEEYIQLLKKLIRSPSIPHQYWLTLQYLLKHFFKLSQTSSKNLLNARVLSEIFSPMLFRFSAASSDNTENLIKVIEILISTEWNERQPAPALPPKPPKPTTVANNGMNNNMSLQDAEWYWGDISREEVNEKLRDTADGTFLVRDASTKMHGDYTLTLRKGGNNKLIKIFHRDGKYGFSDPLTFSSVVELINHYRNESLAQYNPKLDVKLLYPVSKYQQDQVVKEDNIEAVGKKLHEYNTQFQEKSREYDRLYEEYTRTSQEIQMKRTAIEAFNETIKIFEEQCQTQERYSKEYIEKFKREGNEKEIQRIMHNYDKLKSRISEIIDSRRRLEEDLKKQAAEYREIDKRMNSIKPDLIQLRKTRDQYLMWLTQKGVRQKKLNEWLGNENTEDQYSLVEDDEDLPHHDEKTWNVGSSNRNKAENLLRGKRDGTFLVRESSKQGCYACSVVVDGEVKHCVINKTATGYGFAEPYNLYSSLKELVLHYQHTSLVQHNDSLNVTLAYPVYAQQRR
T1 sequence (P42336 whole entry): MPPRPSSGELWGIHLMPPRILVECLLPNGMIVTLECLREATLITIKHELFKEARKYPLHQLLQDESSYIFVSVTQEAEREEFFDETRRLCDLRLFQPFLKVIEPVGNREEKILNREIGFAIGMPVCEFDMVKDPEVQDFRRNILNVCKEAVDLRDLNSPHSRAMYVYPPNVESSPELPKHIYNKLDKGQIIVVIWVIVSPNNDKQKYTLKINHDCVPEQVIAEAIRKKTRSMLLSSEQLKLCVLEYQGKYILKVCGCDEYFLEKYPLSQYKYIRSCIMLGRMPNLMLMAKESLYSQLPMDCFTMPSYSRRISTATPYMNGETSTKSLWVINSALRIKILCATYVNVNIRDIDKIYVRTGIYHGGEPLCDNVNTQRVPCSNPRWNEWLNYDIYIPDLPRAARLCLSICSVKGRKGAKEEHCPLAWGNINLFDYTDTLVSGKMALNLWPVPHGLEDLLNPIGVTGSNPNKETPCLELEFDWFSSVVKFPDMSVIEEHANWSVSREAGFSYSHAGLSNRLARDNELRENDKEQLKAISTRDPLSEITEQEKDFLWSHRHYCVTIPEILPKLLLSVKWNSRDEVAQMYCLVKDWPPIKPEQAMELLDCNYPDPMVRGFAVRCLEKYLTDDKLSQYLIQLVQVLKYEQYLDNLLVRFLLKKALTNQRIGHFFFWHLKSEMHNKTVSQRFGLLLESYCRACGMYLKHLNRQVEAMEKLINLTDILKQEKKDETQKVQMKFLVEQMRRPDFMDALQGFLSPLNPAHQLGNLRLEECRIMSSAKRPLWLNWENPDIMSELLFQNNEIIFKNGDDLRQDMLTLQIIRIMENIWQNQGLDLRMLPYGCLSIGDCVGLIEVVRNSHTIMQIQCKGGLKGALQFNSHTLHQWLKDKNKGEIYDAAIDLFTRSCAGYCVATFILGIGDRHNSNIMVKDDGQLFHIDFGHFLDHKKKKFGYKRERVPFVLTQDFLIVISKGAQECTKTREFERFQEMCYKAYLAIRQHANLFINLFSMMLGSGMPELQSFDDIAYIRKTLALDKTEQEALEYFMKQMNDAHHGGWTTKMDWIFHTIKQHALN

In the case of `CCc1ncnc(-c2ccc(OC)cc2F)c1C#Cc1cnc(C)c(NS(C)(=O)=O)c1` [Example 71, N-{5-[4-Ethyl-6-(2-fluoro-4-methoxy-phenyl)-pyrimidin-5-ylethynyl]-2-methyl-pyridin-3-yl}-methanesulfonamide], the negative-log IC50 (pIC50) on PI3Kalpha is 8.05. For the same compound, the negative-log EC50 (pEC50) with H460 cells is 6.17; in the test on MB453 cells, 6.25; in the test with U87 cells, 5.88; with MCF7 cells, 6.41; in the test on BT474 cells it was 5.99.

Regarding `CCc1ncnc(-c2ccc(C(=O)N(C)C)cc2F)c1C#Cc1cnc(C)c(NS(C)(=O)=O)c1` [Example 72, 4-[6-Ethyl-5-(5-methanesulfonylamino-6-methyl-pyridin-3-ylethynyl)-pyrimidin-4-yl]-3-fluoro-N,N-dimethyl-benzamide], on PI3Kalpha, the negative-log IC50 (pIC50) was 8.10. In addition, the pEC50 in the test with H460 cells was 5.52; with MB453 cells, 6.13; with U87 cells it was 5.80; in the test with MCF7 cells, 6.17; with BT474 cells, 5.71.

Turning to `CCc1ncnc(-c2ccnc(C(C)(C)C)c2)c1C#Cc1cnc(C)c(NS(C)(=O)=O)c1` [Example 75, N-{5-[4-(2-tert-Butyl-pyridin-4-yl)-6-ethyl-pyrimidin-5-ylethynyl]-2-methyl-pyridin-3-yl}-methanesulfonamide], the pIC50 at PI3Kalpha is 9.00. For the same compound, the negative-log EC50 (pEC50) was 6.70 in the test on H460 cells; 6.84 in the test with MB453 cells; 6.35 in the test on U87 cells; 7.10 with MCF7 cells; 6.77 in the test on BT474 cells.

In the case of `CCc1ncnc(-c2ccnc(OC)c2)c1C#Cc1cnc(C)c(NS(C)(=O)=O)c1` [Example 76, N-{5-[4-Ethyl-6-(2-methoxy-pyridin-4-yl)-pyrimidin-5-ylethynyl]-2-methyl-pyridin-3-yl}-methanesulfonamide], at PI3Kalpha, the negative logarithm of the IC50 (pIC50) is 9.04. The negative logarithm of the EC50 (pEC50) is 6.68 in the test with H460 cells; 6.83 with MB453 cells; 6.33 in the test with U87 cells; 7.03 in the test on MCF7 cells; 6.45 in the test on BT474 cells.

Take `CCc1ncnc(-c2ccc(CN)cc2)c1C#Cc1cnc(C)c(NS(C)(=O)=O)c1` [Example 78, N-{5-[4-(4-Aminomethyl-phenyl)-6-ethyl-pyrimidin-5-ylethynyl]-2-methyl-pyridin-3-yl}-methanesulfonamide]: at PI3Kalpha, the negative-log IC50 (pIC50) is 8.40. Besides, the pEC50 with H460 cells was 5.62; with MB453 cells, 6.62; in the test with U87 cells, 6.05; in the test on MCF7 cells it was 6.26; in the test with BT474 cells, 6.28.

For `CCc1ncnc(-c2ccnc(C)c2)c1C#Cc1cnc(C)c(NS(=O)(=O)c2ccccc2)c1` [Example 83, N-{5-[4-Ethyl-6-(2-methyl-pyridin-4-yl)-pyrimidin-5-ylethynyl]-2-methyl-pyridin-3-yl}-benzenesulfonamide], the negative logarithm of the IC50 (pIC50) at PI3Kalpha is 9.19. In addition, the negative-log EC50 (pEC50) with H460 cells is 7.24; with MB453 cells it was 7.07; in the test on U87 cells it was 6.64; with MCF7 cells it was 7.54; in the test with BT474 cells it was 6.99.

For the compound `CCc1ncnc(-c2ccnc(C)c2)c1C#Cc1cnc(C)c(NS(=O)(=O)c2ccc(Cl)cc2)c1` [Example 85, 4-Chloro-N-{5-[4-ethyl-6-(2-methyl-pyridin-4-yl)-pyrimidin-5-ylethynyl]-2-methyl-pyridin-3-yl}-benzenesulfonamide], the pIC50 on PI3Kalpha is 9.00. Further, the pEC50 was 6.45 with H460 cells; 6.30 in the test with MB453 cells; 6.01 with U87 cells; 7.06 in the test on MCF7 cells; 6.52 in the test with BT474 cells.

As for `CCc1ncnc(-c2ccnc(C)c2)c1C#Cc1cnc(C)c(NS(=O)(=O)c2ccc(C)cc2)c1` [Example 86, N-{5-[4-Ethyl-6-(2-methyl-pyridin-4-yl)-pyrimidin-5-ylethynyl]-2-methyl-pyridin-3-yl}-4-methyl-benzenesulfonamide], the negative-log IC50 (pIC50) at PI3Kalpha is 9.00. Moreover, the pEC50 is 6.68 in the test on H460 cells; 6.31 with MB453 cells; 6.16 in the test with U87 cells; 7.25 in the test with MCF7 cells; 6.52 in the test on BT474 cells.

As for `CCc1ncnc(-c2ccnc(C)c2)c1C#Cc1cnc(C)c(NS(=O)(=O)c2ccc(OC)cc2)c1` [Example 87, N-{5-[4-Ethyl-6-(2-methyl-pyridin-4-yl)-pyrimidin-5-ylethynyl]-2-methyl-pyridin-3-yl}-4-methoxy-benzenesulfonamide], at PI3Kalpha, the negative logarithm of the IC50 (pIC50) is 8.30. The pEC50 in the test on H460 cells is 6.62; in the test on MB453 cells, 6.30; in the test on U87 cells, 6.05; with MCF7 cells it was 6.43; in the test on BT474 cells it was 6.42.

With `CCc1ccccc1S(=O)(=O)Nc1cc(C#Cc2c(CC)ncnc2-c2ccnc(C)c2)cnc1C` [Example 88, 2-Ethyl-N-{5-[4-ethyl-6-(2-methyl-pyridin-4-yl)-pyrimidin-5-ylethynyl]-2-methyl-pyridin-3-yl}-benzenesulfonamide], the pIC50 at PI3Kalpha is 8.05. For the same compound, the pEC50 in the test on H460 cells is 6.85; with MB453 cells, 6.48; in the test with U87 cells, 6.15; in the test with MCF7 cells, 7.19; with BT474 cells, 6.76.

Consider `CCc1ncnc(-c2ccnc(C)c2)c1C#Cc1cnc(C)c(NS(=O)(=O)c2ccccc2C)c1` [Example 89, N-{5-[4-Ethyl-6-(2-methyl-pyridin-4-yl)-pyrimidin-5-ylethynyl]-2-methyl-pyridin-3-yl}-2-methyl-benzenesulfonamide], for which, on PI3Kalpha, the negative-log IC50 (pIC50) was 9.06. Besides, the pEC50 is 6.50 in the test with H460 cells; 6.28 in the test on MB453 cells; 6.08 in the test with U87 cells; 7.30 with MCF7 cells; 6.70 in the test on BT474 cells.

With `CCc1ncnc(-c2ccnc(C)c2)c1C#Cc1cnc(C)c(NS(=O)(=O)c2cccnc2)c1` [Example 91, Pyridine-3-sulfonic acid {5-[4-ethyl-6-(2-methyl-pyridin-4-yl)-pyrimidin-5-ylethynyl]-2-methyl-pyridin-3-yl}-amide], the pIC50 at PI3Kalpha was 9.41. Also, the pEC50 in the test on H460 cells is 6.10; in the test with MB453 cells, 6.79; with U87 cells, 6.32; in the test on MCF7 cells, 6.86; in the test on BT474 cells it was 6.69.

With `CCc1ncnc(-c2ccnc(C)c2)c1C#Cc1cnc(C)c(NS(=O)(=O)c2ccc(C)cc2C)c1` [Example 92, N-{5-[4-Ethyl-6-(2-methyl-pyridin-4-yl)-pyrimidin-5-ylethynyl]-2-methyl-pyridin-3-yl}-2,4-dimethyl-benzenesulfonamide], the negative logarithm of the IC50 (pIC50) at PI3Kalpha is 8.15. The pEC50 is 6.44 in the test on H460 cells; 6.01 with MB453 cells; 6.01 in the test with U87 cells; 6.64 in the test on MCF7 cells; 6.32 with BT474 cells.

Consider `CCc1ncnc(-c2ccnc(C)c2)c1C#Cc1cnc(C)c(NS(=O)(=O)c2cn(C)cn2)c1` [Example 93, 1-Methyl-1H-imidazole-4-sulfonic acid {5-[4-ethyl-6-(2-methyl-pyridin-4-yl)-pyrimidin-5-ylethynyl]-2-methyl-pyridin-3-yl}-amide], for which, on PI3Kalpha, the pIC50 is 9.00. Moreover, the negative logarithm of the EC50 (pEC50) is 6.53 in the test with H460 cells; 6.83 with MB453 cells; 6.25 in the test on U87 cells; 6.71 in the test on MCF7 cells; 6.39 in the test on BT474 cells.

Turning to `CCc1ncnc(-c2ccnc(C)c2)c1C#Cc1cnc(C)c(NS(=O)(=O)c2ccc(CNC(C)=O)cc2)c1` [Example 94, N-(4-{5-[4-Ethyl-6-(2-methyl-pyridin-4-yl)-pyrimidin-5-ylethynyl]-2-methyl-pyridin-3-ylsulfamoyl}-benzyl)-acetamide], the pIC50 on PI3Kalpha was 9.00. In addition, the pEC50 in the test with H460 cells is 5.59; with MB453 cells it was 6.29; in the test with U87 cells, 5.63; with MCF7 cells it was 6.24; with BT474 cells, 6.19.

On to `Cc1cc(-c2ncnc(C)c2C#Cc2cncc(NS(C)(=O)=O)c2)ccn1` [Example 95, N-{5-[4-Methyl-6-(2-methyl-pyridin-4-yl)-pyrimidin-5-ylethynyl]-pyridin-3-yl}-methanesulfonamide], for which the pIC50 on PI3Kalpha was 8.70. Further, the negative-log EC50 (pEC50) in the test with H460 cells was 5.69; in the test on MB453 cells, 6.32; in the test on U87 cells it was 6.41; in the test with MCF7 cells, 6.39; in the test on BT474 cells it was 5.78.

Source of the values: patent publication US8466162B2, “5-alkynyl-pyridines” (Boehringer Ingelheim International GmbH, priority 2011, dated 2013).
